target: Leukotriene B4 receptor (Cavia porcellus); experiment: Inhibition of [3H]LTB4 binding to Leukotriene B4 receptor in the guinea pig spleen membranes

IC50 | Compound
183 nM | CC(C)(CCCCOc1cc(-c2ccccc2)c2ccccc2n1)C(=O)O

target: Leukotriene B4 receptor (Cavia porcellus); experiment: as above; remark: another data set of the same source

Compound | IC50
O=C(O)CCCCCCOc1cc(-c2ccccc2)c2ccccc2n1 | 1800 nM
CC(CCCCOc1cc(-c2ccccc2)c2ccccc2n1)C(=O)O (stereo unspecified) | 550 nM
CC(C)(CCCCOc1cc(-c2ccccc2)c2cc(Cl)ccc2n1)C(=O)O | 2500 nM
CC(C)(CCCCOc1cc(-c2ccccc2)c2ccccc2n1)c1nnn[nH]1 | 400 nM
CC(C)(CCCCOc1cc(-c2cccc(Cl)c2)c2ccccc2n1)C(=O)O | 1100 nM
CC(C)(CCCCOc1cc(-c2ccc(C(F)(F)F)cc2)c2ccccc2n1)C(=O)O | 300 nM
COc1cccc(-c2cc(OCCCCC(C)(C)C(=O)O)nc3ccccc23)c1 | 300 nM
c1ccc(-c2cc(OCCCCCc3nnn[nH]3)nc3ccccc23)cc1 | 500 nM
O=C(O)CCCCCOc1cc(-c2ccccc2)c2ccccc2n1 | 700 nM

Continued, values first:

IC50 | Compound
40 nM | CC(C)(CCCCOc1cc(-c2ccc(N)cc2)c2ccccc2n1)C(=O)O
30 nM | O=C(O)CCCCCOc1cc(-c2ccc(Cl)cc2)c2ccccc2n1
15 nM | CC(C)(CCCCOc1cc(-c2ccc(Cl)cc2)c2ccccc2n1)C(=O)O
30 nM | CC(C)(CCCCOc1cc(-c2ccc(Cl)cc2)c2ccccc2n1)c1nnn[nH]1
30 nM | Cc1ccc(-c2cc(OCCCCC(C)(C)C(=O)O)nc3ccccc23)cc1
150 nM | CC(C)(CCCCOc1cc(-c2ccc([N+](=O)[O-])cc2)c2ccccc2n1)C(=O)O
